Experimental data: EPA's ToxRefDB 2

How the values were obtained:
[1] = system: rat; conditions: Combined chronic toxicity/carcinogenicity; fischer; Oral; Gavage/Intubation; dose end: 103 week; group: systemic; systemic / in life observation / clinical signs / lethargy + systemic / pathology microscopic / stomach / inflammation + systemic / …
[2] = system: rat; conditions: Multigenerational reproductive toxicity study, sprague dawley, Oral, Feed, dose end: 2 generation
[3] = system: mouse; conditions: Sub-acute repeat dose toxicity, b6c3f1, Oral, Gavage/Intubation, dose end: 16 day, group: systemic
[4] = system: rat; conditions: Sub-acute repeat dose toxicity; fischer; Oral; Gavage/Intubation; dose end: 16 day; group: systemic; systemic / in life observation / body weight / body weight gain
[5] = system: mouse; conditions: Subchronic oral toxicity in rodents, b6c3f1, Gavage/Intubation, dose end: 13 week, group: systemic
[6] = system: mouse; conditions: Carcinogenicity, b6c3f1, Oral, Gavage/Intubation, dose end: 103 week, group: systemic
[7] = system: rat; conditions: Subchronic oral toxicity in rodents, fischer, Gavage/Intubation, dose end: 13 week, group: systemic
[8] = system: rat; conditions: Carcinogenicity; other; Oral; Feed; dose end: 80 week; group: systemic; systemic / in life observation / body weight / body weight + systemic / in life observation / clinical signs / anemia + systemic / in life …
[9] = system: rat; conditions: Developmental neurotoxicity study; fischer; Injection; Subcutaneous; dose end: 21 PND; group: cannot be grouped; systemic / in life observation / body weight / offspring (pup) weight + systemic / in life observation / clinical signs / tremors
[10] = system: rat; conditions: Subchronic oral toxicity in rodents, other, Feed, dose end: 13 week
[11] = system: mouse; conditions: Carcinogenicity, b6c3f1, Oral, Feed, dose end: 80 week, group: systemic
[12] = system: rat; conditions: Developmental neurotoxicity study; fischer; Oral; Feed; dose end: 114 PND; group: cannot be grouped; systemic / in life observation / body weight / offspring (pup) weight
[13] = group: offspring, systemic / in life observation / body weight / offspring (pup) weight
[14] = group: parental, systemic / in life observation / body weight / body weight + systemic / in life observation / body weight / body weight gain + systemic / …
[15] = group: parental, systemic / organ weight / kidney / relative to body weight
[16] = systemic / in life observation / clinical signs / lethargy + systemic / in life observation / mortality / mortality
[17] = systemic / in life observation / clinical signs / fur (altered appearance) + systemic / in life observation / clinical signs / lethargy
[18] = systemic / in life observation / clinical signs / fur (altered appearance) + systemic / in life observation / clinical signs / lethargy + …
[19] = systemic / in life observation / clinical signs / lethargy + systemic / in life observation / body weight / body weight
[20] = systemic / in life observation / clinical signs / lethargy + systemic / in life observation / body weight / body weight + systemic / …
[21] = systemic / organ weight / liver / absolute + systemic / organ weight / liver / relative to body weight
[22] = group: maternal, reproductive / reproductive performance / mating / mating
[23] = group: systemic, systemic / organ weight / kidney / absolute + systemic / organ weight / kidney / relative to body weight + systemic / organ weight / liver…
[24] = systemic / pathology microscopic / liver / hyperplasia
[25] = systemic / pathology microscopic / liver / hyperplasia + systemic / pathology microscopic / liver / hepatocellular carcinoma + systemic / in…

Work on `S=c1[nH]c2ccccc2s1` [2-Mercaptobenzothiazole] yielded an LEL [1] of 188 mg/kg/day, an LOAEL [1] of 188 mg/kg/day and an NEL [1] of less than 188 mg/kg/day. The NOAEL [1] was less than 188 mg/kg/day, the LEL [2, 13] was 194 mg/kg/day and the LOAEL [2, 13] was 194 mg/kg/day. For the same molecule, the NEL [2, 13] was less than 194 mg/kg/day, the NOAEL [2, 13] was less than 194 mg/kg/day and the LOAEL [2, 14] was 695 mg/kg/day. For the same molecule, the NOAEL [2, 14] was 194 mg/kg/day, the LEL [2, 15] was 218 mg/kg/day and the NEL [2, 15] was less than 218 mg/kg/day. The LOAEL ([3]; systemic / in life observation / clinical signs / lethargy) was 1500 mg/kg/day, the LEL [3, 16] was 1500 mg/kg/day and the NEL [3, 16] was 750 mg/kg/day. For the same molecule, the NOAEL [3, 16] was 750 mg/kg/day, the LEL [4] was 2500 mg/kg/day and the LOAEL [4] was greater than 2500 mg/kg/day. The NEL [4] was 1250 mg/kg/day, the NOAEL [4] was no less than 2500 mg/kg/day and the LEL [5, 17] was 375 mg/kg/day. For the same molecule, the LOAEL [5, 17] was 375 mg/kg/day, the NEL [5, 18] was 188 mg/kg/day and the NOAEL [5, 18] was 188 mg/kg/day. For the same molecule, the LOAEL [6, 19] was 375 mg/kg/day, the NOAEL [6, 19] was less than 375 mg/kg/day and the LEL [6, 20] was 375 mg/kg/day. For the same molecule, the NEL [6, 20] was less than 375 mg/kg/day, the LOAEL ([7]; systemic / in life observation / body weight / body weight gain + systemic / in life observation / clinical signs / irritability) was 750 mg/kg/day and the LEL [7, 21] was 188 mg/kg/day. It also gave an NEL [7, 21] of less than 188 mg/kg/day and an NOAEL ([7]; systemic / organ weight / liver / absolute + systemic / organ weight / liver / relative to body weight + systemic / in life observation / …) of 375 mg/kg/day.

In the case of `O=C1C2(Cl)C3(Cl)C4(Cl)C(Cl)(Cl)C5(Cl)C3(Cl)C1(Cl)C5(Cl)C24Cl` (stereo unspecified) [Kepone], the LEL [8] is reported as 0.4 mg/kg/day, the LOAEL [8] is reported as 0.4 mg/kg/day and the NEL [8] is reported as less than 0.4 mg/kg/day. It also gave an NOAEL [8] of less than 0.4 mg/kg/day, an LEL [9] of 1 mg/kg/day and an LOAEL [9] greater than 1 mg/kg/day. For the same molecule, the NEL [9] was less than 1 mg/kg/day, the NOAEL [9] was no less than 1 mg/kg/day and the LEL [10, 22] was 1.25 mg/kg/day. It also gave an LOAEL [10, 22] greater than 1.25 mg/kg/day, an NEL [10, 22] of less than 1.25 mg/kg/day and an NOAEL [10, 22] of no less than 1.25 mg/kg/day. It also gave an LEL [10, 23] of 1.25 mg/kg/day, an LOAEL [10, 23] greater than 1.25 mg/kg/day and an NEL [10, 23] of less than 1.25 mg/kg/day. For the same molecule, the NOAEL [10, 23] was no less than 1.25 mg/kg/day, the LOAEL [11, 24] was 3 mg/kg/day and the NOAEL [11, 24] was less than 3 mg/kg/day. It also gave an LEL [11, 25] of 3 mg/kg/day, an NEL [11, 25] of less than 3 mg/kg/day and an LEL [12] of 0.05 mg/kg/day. It also gave an LOAEL [12] greater than 0.3 mg/kg/day, an NEL [12] of less than 0.05 mg/kg/day and an NOAEL [12] of no less than 0.3 mg/kg/day.
